The record followed here is patent EP0054589B1, “Organic phosphoric acid ester derivatives, a process for preparing the same and insecticidal, miticidal or nematocidal compositions containing the same” (priority 1980, dated 1982).

Where two headings read alike, the source gives them in different places.

For series [1], the system named is apple leaf miner. Put plainly: Insecticidal effect on apple leaf miner (sprayed apple seedling). Particulars: Phyllonorycter ringoniella, 336 h, 500 ppm, fourteen days after spraying. In kind it is in vivo, Lithocolletis ringoniella. Here is the method: (A) A dilute water suspension of a wettable powder prepared as described in Formulation Example 5 was sufficiently sprayed using a spray-gun on a seedling of an apple tree planted in a bisque flower pot to which plant larvae of apple leaf miner just after hatching were parasitic. Thereafter the pots were placed in a green house. Fourteen days after the spraying, bores made by larvae were broken and percent mortality was assessed for all the leaves of each seedling. Three pots were used for each treatment.
(B) A dilute water suspension of a wettable powder prepared as described in Formulation Example 7 was sufficiently sprayed using a spray-gun on a seedling of an apple tree planted in a bisque flower pot to which plant larvae of apple leaf miner just after hatching were parasitic. Thereafter the pots were placed in a green house. Fourteen days after the spraying, bores made by larvae were broken and percent mortality was assessed for all the leaves of each seedling. Three pots were used for each treatment.

Series [2] deals with tobacco cutworm. The series can be described thus: Insecticidal effect on tobacco cutworm (cabbage leaf dip). The format is in vivo, Prodenia litura. Particulars: after 48 hours, 25°C. Here is the method: (A) An emulsifiable concentrate prepared as described in Formulation Example 1 was diluted with water to a predetermined concentration and then cabbage leaves were dipped into the dilute solution and dried in air and placed in a 60 ml volume cup made of vinyl chloride resin. 3rd-instar larvae of tobacco cutworm were put in each cup and maintained at 25°C. After 48 hours, percent mortality was assessed. The test was replicated 3 times for each compound using 30 insects in each test.
(B) An emulsifiable concentrate prepared as described in Formulation Example 3 was diluted with water to a predetermined concentration and then cabbage leaves were dipped into the dilute solution and dried in air and placed in a 60 ml volume cup made of vinyl chloride resin. 3rd-instar larvae of tobacco cutworm were put in each cup and maintained at 25°C. After 48 hours, percent mortality was assessed. The test was replicated 3 times for each compound using 30 insects in each test.

Series [3] concerns Kidney Bean. The series can be described thus: Phytotoxicity on various crops. The format is in vivo. The arrangement: key: Symbol — indicates that no toxicity was observed. Particulars: 500 ppm sprayed; checked visually after 10 days. As for the experimental part: (§1) An emulsifiable concentrate prepared as described in Formulation Example 2 was diluted with water to a concentration of 500 ppm based on the effective ingredient and sprayed sufficiently using a spray-gun onto various test plants. The plants were kept in a green house. After 10 days from the application phytotoxicity was checked visually. The test was replicated 3 times for each compound.

In series [4] the test system is Cabbage. The series can be described thus: Phytotoxicity on various crops. In kind it is in vivo. Particulars: 500 ppm sprayed; checked visually after 10 days. Set-up: key: Symbol — indicates that no toxicity was observed. Here is the method:
as §1

Series [5] concerns Beet. Put plainly: Phytotoxicity on various crops. In kind it is in vivo. Set-up: key: Symbol — indicates that no toxicity was observed. Particulars: 500 ppm sprayed; checked visually after 10 days. As for the experimental part:
as §1

Series [6] has as its system Cotton. Put plainly: Phytotoxicity on various crops. The format is in vivo. The arrangement: key: Symbol — indicates that no toxicity was observed. Particulars: 500 ppm sprayed; checked visually after 10 days. Here is the method:
as §1

In series [7] the test system is Apple. The series can be described thus: Phytotoxicity on various crops. The format is in vivo. Set-up: key: Symbol — indicates that no toxicity was observed. Particulars: 500 ppm sprayed; checked visually after 10 days. Here is the method:
as §1

The test system of series [8] is Tea. Put plainly: Phytotoxicity on various crops. The arrangement: key: Symbol — indicates that no toxicity was observed. In kind it is in vivo. Particulars: 500 ppm sprayed; checked visually after 10 days. Here is the method: as §1
Series [9] has as its system Cucumber. Put plainly: Phytotoxicity on various crops. Set-up: key: Symbol — indicates that no toxicity was observed. In kind it is in vivo. Particulars: 500 ppm sprayed; checked visually after 10 days. As for the experimental part: as §1
Series [10] deals with Rice. The series can be described thus: Phytotoxicity on various crops. In kind it is in vivo. Particulars: 500 ppm sprayed; checked visually after 10 days. The arrangement: key: Symbol — indicates that no toxicity was observed. As for the experimental part:
as §1

Series [11] deals with Green Pepper. Put plainly: Phytotoxicity on various crops. Set-up: key: Symbol — indicates that no toxicity was observed. Particulars: 500 ppm sprayed; checked visually after 10 days. In kind it is in vivo. As for the experimental part:
as §1

The subject of series [12] is egg plant. The series can be described thus: Phytotoxicity on various crops. The format is in vivo. Set-up: key: Symbol — indicates that no toxicity was observed. Particulars: 500 ppm sprayed; checked visually after 10 days. As for the experimental part: as §1
Series [13] deals with Tomato. The series can be described thus: Phytotoxicity on various crops. The format is in vivo. Set-up: key: Symbol — indicates that no toxicity was observed. Particulars: 500 ppm sprayed; checked visually after 10 days. Here is the method:
as §1

Series [14] relates to rice stem borer. The series can be described thus: Insecticidal effect on rice stem borer, 3rd-instar larvae (rice seedling dip). The format is in vivo, Chilo suppressalis. Particulars: after 72 hours, 25°C. Here is the method: (A) A wettable powder prepared as described in Formulation Example 5 was diluted with water to a predetermined concentration. Rice seedlings were dipped into the dilute solution and placed in a 60 ml volume cup made of vinyl chloride resin, and 10 3rd-instar larvae of rice stem borer were put in each cup. The cups were capped and maintained at 25°C.
(B) A wettable powder prepared as described in Formulation Example 7 was diluted with water to a predetermined concentration. Rice seedlings were dipped into the dilute solution and placed in a 60 ml volume cup made of vinyl chloride resin, and 10 3rd-instar larvae of rice stem borer were put in each cup. The cups were capped and maintained at 25°C.

Series [15] relates to tobacco cutworm. Put plainly: Long-lasting insecticidal effect on tobacco cutworm (sprayed cabbage plantlet). In kind it is in vivo, Prodenia litura. Particulars: concentration 500 (unit not given), mortality after 48 hours; for Percent Mortality After Application 3rd Day: leaves cut on 3rd day; for Percent Mortality After Application 5th Day: leaves cut on 5th day; for Percent Mortality After Application 7th Day: leaves cut on 7th day; for Percent Mortality After Application 10th Day: leaves cut on 10th day. As for the experimental part: (§2) (A) An emulsifiable concentrate prepared as described in Formulation Example 2 was diluted with water to a predetermined concentration and sprayed onto a cabbage plantlet in a flower pot of 15 cm in diameter using a spray-gun sufficiently and the tests plants were placed in a green house. The leaves of the plants were cut off on the 3rd, 5th, 7th, 10th and 15th day and placed in a 60 ml volume cup and 3rd-instar larvae of tobacco cutworm were put in each cup. The cups were kept in an incubator (25°C). After 48 hours, percent mortality was assessed. The tests was replicated 3 times for each compound using 30 insects in each test.
as §2, with “(B) An” for “(A) An”, “Example 3” for “Example 2”, “and 1 5th” for “and 15th”

Series [16] deals with diamond back moth. Put plainly: Insecticidal effect on diamond-back moth (cabbage leaf dip). The format is in vivo, Plutella xylostella. Particulars: Table 8; 100 ppm; after 72 hours, 25°C; emulsifiable concentrate as Formulation Example 4. Here is the method: (A) An emulsifiable concentrate prepared as described in Formulation Example 1 was diluted with water to a predetermined concentration and leaves of a cabbage were dipped into the dilute emulsion for 10 seconds followed by drying in air, and charged in a 60 ml volume cup made of vinyl chloride resin. Then, thirty 3rd-instar larvae of diamond back moth were put in each cup, and the cups were kept at 25°C. After 72 hours, percent mortality was assessed and the test was replicated 3 times for each treatment.
(B) An emulsifiable concentrate prepared as described in Formulation Example 4 was diluted with water to a predetermined concentration and leaves of a cabbage were dipped into the dilute emulsion for 10 seconds followed by drying in air, and charged in a 60 ml volume cup made of vinyl chloride resin. Then, thirty 3rd-instar larvae of diamond back moth were put in each cup, and the cups were kept at 25°C. After 72 hours, percent mortality was assessed and the test was replicated 3 times for each treatment.

The test system of series [17] is smaller tea tortrix. The series can be described thus: Insecticidal effect on smaller tea tortrix (apple leaf dip). The format is in vivo. Particulars: Adoxophyes orana, foliar, read-out: Percent Mortality. As for the experimental part:
Leaves of an apple tree were dipped into a dilute water suspension of a wettable powder prepared as described in Formulation Example 5. After drying in air, the leaves were charged in a 60 ml volume cup made of vinyl chloride resin, and […] 3rd-instar larvae of smaller tea tortrix were put in each cup. The cups were capped and kept at 25°C. After 72 hours, the number of the surviving insects and the dead insects were recorded to determine percent mortality. In each treatment, 3 cups and 30 insects were used in total.

Where [18] appears, read: Table 10, wettable powder as Formulation Example 5, read-out: Percent Morality (%).
The mark [19] stands for this setting: Table 4, 100 ppm, emulsifiable concentrate as Formulation Example 3.
The mark [20] stands for this setting: Table 1, 500 ppm, wettable powder as Formulation Example 5.
The mark [21] stands for this setting: Table 2, 100 ppm, wettable powder as Formulation Example 7.

For `CCOP(=O)(Oc1ccc2c(c1)OC(CC)=C(C)C2(CC)CC)SC(C)CC` (centres unmarked) [Compound No. 19], in series [1] (setting [18]), the mortality at 500 ppm is 100%. Also, the “Percent Mortality (%)” value in [2] (setting [19]) is 100%; in series [14] (Table 1, 100 ppm, wettable powder as Formulation Example 5) it was 100%; in series [14] (setting [20]), 100%; in series [14] (setting [21]) it was 100%. In addition, the “Phytotoxicity: Kidney Bean” value in series [3] is on record as “—”. Besides, the “Phytotoxicity: Cabbage” value in series [4] is “—”. Also, the “Phytotoxicity: Beet” value in series [5] is on record as “—”. In addition, the “Phytotoxicity: Cotton” value in series [6] is “—”. Also, in series [7], the “Phytotoxicity: Apple” value is “—”. For the same compound, the “Phytotoxicity: Tea” value in series [8] is “—”. Also, the “Phytotoxicity: Cucumber” value in series [9] is “—”. In series [10], the “Phytotoxicity: Rice” value is reported as “—”. The “Phytotoxicity: Green Pepper” value in series [11] is “—”. Further, the “Phytotoxicity: Egg Plant” value in [12] is recorded as “—”. Further, the “Phytotoxicity: Tomato” value in series [13] was “—”.
In the case of `CCC(C)SP(=O)(OC)Oc1ccc2c(c1)OC(C)(C)C=C2C` (centres unmarked) [Compound No. 24], in series [15] (Table 6), the “Percent Mortality After Application 3rd Day” value was 100%, the “Percent Mortality After Application 5th Day” value stood at 93.3%, the “Percent Mortality After Application 7th Day” value stood at 60.0% and the “Percent Mortality After Application 10th Day” value turned out to be 23.3%. The “Percent Mortality After Application Immediately after Application” value in series [15] (Table 6) is on record as 100%. Besides, the mortality at 500 ppm in [1] (Table 11, wettable powder as Formulation Example 7, read-out: Percent Mortality (%)) was determined as 100%. The “Percent Mortality (%)” value in [2] (setting [19]) was 100%. In addition, the “Percent Mortality (%)” value in series [16] worked out at 100%. For the same compound, in series [3], the “Phytotoxicity: Kidney Bean” value is reported as “—”. Further, in series [4], the “Phytotoxicity: Cabbage” value is on record as “—”. Moreover, in [5], the “Phytotoxicity: Beet” value is “—”. Moreover, the “Phytotoxicity: Cotton” value in series [6] was “—”. For the same compound, the “Phytotoxicity: Apple” value in [7] was “—”. Also, the “Phytotoxicity: Tea” value in series [8] was “—”. In [9], the “Phytotoxicity: Cucumber” value is recorded as “—”. Also, the “Phytotoxicity: Rice” value in series [10] is reported as “—”. Moreover, in series [11], the “Phytotoxicity: Green Pepper” value is “—”. For the same compound, in [12], the “Phytotoxicity: Egg Plant” value was “—”. Further, the “Phytotoxicity: Tomato” value in series [13] was “—”. Further, the “Percent Mortality (%)” value in series [14] (setting [21]) is reported as 100%.
Regarding `CCOP(=S)(OCC)Oc1cc(C)nc(C(C)C)n1` [Diazinon, 0,0-diethyl (O-2-isopropyl-6-methyl-pyrimidin-4-yl)phosphorothioate, reference compound], the mortality at 100 ppm in series [17] (72 h) turned out to be 43.3%.
Consider `COP1(=S)OCc2ccccc2O1` (centres unmarked) [Salithion, 2-methoxy-4H-benzo-1,3,2-dioxaphosphorin 2-sulphide, reference compound], for which, in [15] (Table 5), the “Percent Mortality After Application 3rd Day” value stood at 20%, the “Percent Mortality After Application 5th Day” value is given as 0%, the “Percent Mortality After Application 7th Day” value is recorded as 0% and the “Percent Mortality After Application 10th Day” value was found to be 0%. In addition, the “Percent Mortality After Application 15th Day” value in [15] (Table 5, leaves cut on 15th day) is listed as 0%. In series [15] (Table 6), the “Percent Mortality After Application 3rd Day” value came to 0% and the “Percent Mortality After Application Immediately after Application” value came to 100%. The mortality at 500 ppm in series [1] (setting [18]) amounted to 95%.
Regarding `CCOP(=O)(Oc1ccc2c(c1)OC(C)=CC2(C)C)SC(C)C` (centres unmarked) [compound 14], the “Percent Mortality (%)” value in series [2] (Table 3, 500 ppm, emulsifiable concentrate as Formulation Example 1) is 100%; in series [14] (setting [20]) it was 100%. For the same compound, the “Phytotoxicity: Kidney Bean” value in [3] is “—”. Also, in series [4], the “Phytotoxicity: Cabbage” value is reported as “—”. For the same compound, in series [5], the “Phytotoxicity: Beet” value is on record as “—”. Also, the “Phytotoxicity: Cotton” value in series [6] is recorded as “—”. Besides, the “Phytotoxicity: Apple” value in [7] was “—”. For the same compound, the “Phytotoxicity: Tea” value in series [8] was “—”. Besides, the “Phytotoxicity: Cucumber” value in [9] is “—”. The “Phytotoxicity: Rice” value in [10] is listed as “—”. Moreover, the “Phytotoxicity: Green Pepper” value in series [11] was “—”. Further, the “Phytotoxicity: Egg Plant” value in series [12] is “—”. Moreover, in series [13], the “Phytotoxicity: Tomato” value is recorded as “—”. In addition, the mortality at 100 ppm in [17] (Table 9, 100 ppm, after 72 hours, 25°C, wettable powder as Formulation Example 5) is 83.3%.
